Results taken from patent publication US20250360215A1, “PHARMACEUTICAL COMBINATIONS AND METHODS FOR PREVENTING OR TREATING NEURODEGENERATIVE DISEASES” (National Health Research Institutes, priority 2022, published 2025).

Experiments:
[1] = system: dementia in human population; experiment: Population-based retrospective matched cohort analysis of dementia risk (Taiwan NHIRD database); type: in vivo
Experimental: To assess the potential for applying the combined drugs identified in Example 5 for therapeutic application in patients with dementia, a long-term follow-up retrospective analysis of human efficacy predictions was conducted by using National Health Research Institutes Database (NHRID) of Taiwan. Specifically, a […] matched cohort study was conducted to assess the effectiveness of the combined use of thyroid hormones and thiazolidinediones (TZDs) in reducing the risk of dementia, based on a dataset tracked 10,535 subjects with these two drugs for 10 years.

3T3-L1 cells [2] = experiment: Lipid droplet accumulation in 3T3-L1 adipocytes (3D imaging, HCS LipidTOX Red neutral lipid stain); type: cell-based, mouse; conditions: 1 μM peptide, 24 hours
Experimental: (§1) FIGS. 3A to 3E show the increased lipid deposition induced by Aβ42.
Scale bar: 20 μm. […] FIGS. 6H and 6I show the HDL/T-Chol (FIG. 6H) and glucose (FIG. 6I) levels in plasma of APP/PS1 mice with or without thyroxine and pioglitazone. ** p<0.01. […] Tubulin, GAPDH (glyceraldehyde-3-phosphate dehydrogenase), and ponceau S: internal controls, respectively.
The 3T3-L1 pre-adipocytes ([…], ATCC CL-173) were cultured in Dulbecco's modified Eagle medium (DMEM) (Invitrogen, USA). Cells were grown at 37° C. in a 5% CO2 humid atmosphere. The differentiation of 3T3-L1 cells into adipocyte-like cells was performed as follows. A confluence of 70% of 3T3-L1 cells was induced with MDI induction medium (containing 500 μM 3-isobutyl-1-methylxanthine (IBMX), 1 μg/mL insulin, and 1 μM dexamethasone) for 3 days, followed by changing the medium to differentiation medium (10% fetal bovine serum (FBS) in DMEM). The differentiation medium was refreshed every two days. Full differentiation was achieved by day 8.
To exclude the possibility that the visceral adiposity was a secondary event caused by factors released from other tissues/organs, 3T3-L1 adipocytes were incubated with Aβ40 or Aβ42 to determine whether and which Aβ peptides to be potent in causing lipid accumulation in adipocytes.

wild-type mice = experiment: Aβ42 intraperitoneal injection into wild-type mice (lipid deposition); type: in vivo, mouse; conditions: WT mice, Aβ42 30 μg intraperitoneally three times at an interval of 3 days; 7 days after last injection
Experimental: as §1
To assess whether the Aβ peptides were involved in lipid deposition in adipose tissues, Aβ42 (30 μg) was injected intraperitoneally into WT mice three times at an interval of 3 days.

3T3-L1 cells [3] = experiment: ApoE gene expression and LXR signaling protein levels in 3T3-L1 cells treated with Aβ peptides; type: cell-based, mouse
Experimental: FIGS. 4E and 4H show the result of Western blot of LXR signaling proteins in gWAT (FIG. 4E) or BAT (FIG. 4H) of wild-type (WT) mice and APP/PS1 (AD) mice (n=2). […] ABCA1: ATP binding cassette subfamily A member 1. PPAγ: peroxisome proliferator-activated receptor gamma. Actin, GAPDH (glyceraldehyde-3-phosphate dehydrogenase) and tubulin: internal controls, respectively.
The 3T3-L1 pre-adipocytes ([…], ATCC CL-173) were cultured in Dulbecco's modified Eagle medium (DMEM) (Invitrogen, USA). Cells were grown at 37° C. in a 5% CO2 humid atmosphere. The differentiation of 3T3-L1 cells into adipocyte-like cells was performed as follows. […]
Total RNAs from brain tissues or culture cells were extracted using the illustra RNAspin Mini RNA Isolation Kit (GE Healthcare Life Sciences) for reverse transcription with the High-Capacity cDNA Reverse Transcription Kits (ABI Applied Biosystems, USA) according to the manufacturer's instructions. The quantitative real-time reverse transcription-PCR analysis was performed using the Fast SYBR Green Master Mix (ABI Applied Biosystems, USA). Results were determined using respective standard curves calculations. […]

[4] = system: Aβ42-treated 3T3-L1 cells; experiment: UCP1 and PPARγ2 levels in MDI-induced, Aβ42-treated 3T3-L1 cells (screening of combination drugs); conditions: MDI-induced differentiated 3T3-L1 adipocytes treated with Aβ42 (FIG. 5)

Molecule | Incidence rate of dementia (per 1,000-person-year) ([1]; Group 3: TZD + T3 vs T3 only, matched cohort) | reduction of the risk of getting dementia ([1]; retrospective analysis, 10 years follow-up) [%] | lipid droplet accumulation in adipocytes (3T3-L1 cells [2]) | body weight and gWAT mass (wild-type mice) | protein levels of LXRα, PPARγ, ABCA1 and caveolin-1 (3T3-L1 cells [3]; Western blot) | apoE gene expression (3T3-L1 cells [3]; qRT-PCR) | PPARγ2 level [4] | UCP1 level [4]
N[C@@H](Cc1cc(I)c(Oc2ccc(O)c(I)c2)c(I)c1)C(=O)O [T3 only, triiodothyronine] | 10.17 per 1,000-person-year | 21.7 | – | – | – | – | – | –
Aβ40: amyloid β peptide Aβ40, comparison peptide | – | – | not | – | – | – | – | –
Aβ42: amyloid β peptide Aβ42, used as inducer of lipid deposition | – | – | evidently stimulated | rapidly increased | markedly decreased | markedly upregulated | increased | decreased
